Key:
Type in all cases: in vivo
[1] = test system: Amaranthus retroflexus L.; assay: greenhouse trial, foliar applied compositions, AMARE (redroot pigweed)
Excerpt: (§1) More specifically, the following equation is used to calculate the expected activity of mixtures containing two herbicidal active ingredients: Expected=A+B−(A×B/100) A=observed efficacy of a first active ingredient at the same concentration as used in the mixture; B=observed efficacy of the second active ingredient (or product, which may contain a combination of active ingredients) at the same concentration as used in the mixture. For mixtures containing three herbicidal active ingredients, the following equation can be used to calculate the expected activity: Expected=100−[(100−A)(100−B)(100−C)/10,000] A=observed efficacy of a first active ingredient at the same concentration as used in the mixture; B=observed efficacy of a second active ingredient B at the same concentration as used in the mixture; C=observed efficacy of a third active ingredient C at the same concentration as used in the mixture.
(§2) Results in Tables 1-12 are greenhouse trial results for foliar applied compositions.
(§3) g/ha=grams acid equivalent per hectare for Cmpd 1 and grams active ingredient per hectare for flurtamone, flufenacet, and diflufenican Obs=observed value Exp=expected value as calculated by the equations set forth above. Cmpd 1=methyl 4-amino-3-chloro-6-(4-chloro-2-fluoro-3-methoxyphenyl)-pyridine-2-carboxylate

[2] = test system: Triticum aestivum (spring); assay: greenhouse trial, foliar applied compositions, TRZAS (spring wheat)
Excerpt: as §1, §2, §3

[3] = test system: Cyperus esculentus L.; assay: greenhouse trial, foliar applied compositions, CYPES (yellow nutsedge)
Excerpt: as §1, §2, §3

[4] = test system: Cirsium arvense (L.) Scop.; assay: greenhouse trial, foliar applied compositions, CIRAR (Canada thistle)
Excerpt: as §1, §2, §3

[5] = test system: Viola tricolor L.; assay: greenhouse trial, foliar applied compositions, VIOTR (wild violet)
Excerpt: as §1, §2, §3

[6] = test system: Setaria faberi Herrm.; assay: greenhouse trial, foliar applied compositions, SETFA (giant foxtail)
Excerpt: as §1, §2, §3

[7] = test system: Chenpodium album L.; assay: greenhouse trial, foliar applied compositions, CHEAL (common lambsquarters)
Excerpt: as §1, §2, §3

[8] = test system: Stellaria media (L.) Vill.; assay: greenhouse trial, foliar applied compositions, STEME (common chickweed)
Excerpt: as §1, §2, §3

[9] = test system: Abutilon theophrasti Medik.; assay: greenhouse trial, foliar applied compositions, ABUTH (velvetleaf)
Excerpt: as §1, §2, §3

[10] = test system: Ipomoea hederacea; assay: greenhouse trial, foliar applied compositions, IPOHE (ivyleaf morningglory)
Excerpt: as §1, §2, §3

[11] = test system: Euphorbia heterohylla L.; assay: greenhouse trial, foliar applied compositions, EPHHL (wild poinsettia)
Excerpt: as §1, §2, §3

[12] = foliar applied, Cmpd 1 5.00 g/ha

COC(=O)c1nc(-c2ccc(Cl)c(OC)c2F)cc(N)c1Cl [Cmpd 1, methyl 4-amino-3-chloro-6-(4-chloro-2-fluoro-3-methoxyphenyl)-pyridine-2-carboxylate]
AMARE Obs ([1]; Cmpd 1 1.25 g/ha): 30
AMARE Obs ([1]; Cmpd 1 2.50 g/ha): 93
AMARE Obs ([1]; Cmpd 1 5.00 g/ha): 78
AMARE Obs [1, 12]: 78
TRZAS Obs ([2]; Cmpd 1 1.25 g/ha): 0
TRZAS Obs ([2]; Cmpd 1 2.50 g/ha): 0
TRZAS Obs ([2]; Cmpd 1 5.00 g/ha): 0
CYPES Obs ([3]; Cmpd 1 1.25 g/ha): 58
CYPES Obs ([3]; Cmpd 1 2.50 g/ha): 85
CYPES Obs ([3]; Cmpd 1 5.00 g/ha): 81
CYPES Obs [3, 12]: 81
CIRAR Obs ([4]; Cmpd 1 1.25 g/ha): 20
CIRAR Obs ([4]; Cmpd 1 2.50 g/ha): 55
CIRAR Obs ([4]; Cmpd 1 5.00 g/ha): 75
CIRAR Obs [4, 12]: 75
VIOTR Obs ([5]; Cmpd 1 1.25 g/ha): 5
VIOTR Obs ([5]; Cmpd 1 2.50 g/ha): 15
VIOTR Obs ([5]; Cmpd 1 5.00 g/ha): 23
VIOTR Obs [5, 12]: 23
SETFA Obs ([6]; Cmpd 1 1.25 g/ha): 0
SETFA Obs ([6]; Cmpd 1 2.50 g/ha): 5
SETFA Obs ([6]; Cmpd 1 5.00 g/ha): 0
CHEAL Obs ([7]; Cmpd 1 1.25 g/ha): 60
CHEAL Obs ([7]; Cmpd 1 2.50 g/ha): 83
CHEAL Obs ([7]; Cmpd 1 5.00 g/ha): 85
CHEAL Obs [7, 12]: 85
STEME Obs ([8]; Cmpd 1 1.25 g/ha): 20
STEME Obs ([8]; Cmpd 1 2.50 g/ha): 58
STEME Obs ([8]; Cmpd 1 5.00 g/ha): 65
STEME Obs [8, 12]: 65
ABUTH Obs ([9]; Cmpd 1 1.25 g/ha): 78
ABUTH Obs ([9]; Cmpd 1 2.50 g/ha): 91
ABUTH Obs ([9]; Cmpd 1 5.00 g/ha): 98
IPOHE Obs ([10]; Cmpd 1 1.25 g/ha): 15
IPOHE Obs ([10]; Cmpd 1 2.50 g/ha): 15
IPOHE Obs ([10]; Cmpd 1 5.00 g/ha): 35
EPHHL Obs ([11]; Cmpd 1 1.25 g/ha): 60
EPHHL Obs ([11]; Cmpd 1 2.50 g/ha): 89
EPHHL Obs ([11]; Cmpd 1 5.00 g/ha): 92
EPHHL Obs [11, 12]: 92

CC(C)N(C(=O)COc1nnc(C(F)(F)F)s1)c1ccc(F)cc1 [Flufenacet, N-(4-fluorophenyl)-N-(1-methylethyl)-2-[[5-(trifluoromethyl)-1,3,4-thiadiazol-2-yl]oxy]acetamide]
AMARE Obs ([1]; Flufenacet 30 g/ha): 0
AMARE Obs ([1]; Flufenacet 60 g/ha): 0
TRZAS Obs ([2]; Flufenacet 30 g/ha): 0
TRZAS Obs ([2]; Flufenacet 60 g/ha): 0
CYPES Obs ([3]; Flufenacet 30 g/ha): 0
CYPES Obs ([3]; Flufenacet 60 g/ha): 0
CIRAR Obs ([4]; Flufenacet 30 g/ha): 0
CIRAR Obs ([4]; Flufenacet 60 g/ha): 0
VIOTR Obs ([5]; Flufenacet 30 g/ha): 0
VIOTR Obs ([5]; Flufenacet 60 g/ha): 0
SETFA Obs ([6]; Flufenacet 30 g/ha): 0
SETFA Obs ([6]; Flufenacet 60 g/ha): 0
CHEAL Obs ([7]; Flufenacet 30 g/ha): 0
CHEAL Obs ([7]; Flufenacet 60 g/ha): 0
STEME Obs ([8]; Flufenacet 30 g/ha): 0
STEME Obs ([8]; Flufenacet 60 g/ha): 0
ABUTH Obs ([9]; Flufenacet 30 g/ha): 0
ABUTH Obs ([9]; Flufenacet 60 g/ha): 0
IPOHE Obs ([10]; Flufenacet 30 g/ha): 0
IPOHE Obs ([10]; Flufenacet 60 g/ha): 0
EPHHL Obs ([11]; Flufenacet 30 g/ha): 0
EPHHL Obs ([11]; Flufenacet 60 g/ha): 0

O=C(Nc1ccc(F)cc1F)c1cccnc1Oc1cccc(C(F)(F)F)c1 [Diflufenican, N-(2,4-difluorophenyl)-2-[3-(trifluromethyl)phenoxy]-3-pyridinecarboxamide]
AMARE Obs ([1]; Diflufenican 25 g/ha): 25
AMARE Obs ([1]; Diflufenican 50 g/ha): 50
TRZAS Obs ([2]; Diflufenican 25 g/ha): 0
TRZAS Obs ([2]; Diflufenican 50 g/ha): 0
CYPES Obs ([3]; Diflufenican 25 g/ha): 0
CYPES Obs ([3]; Diflufenican 50 g/ha): 0
CIRAR Obs ([4]; Diflufenican 25 g/ha): 28
CIRAR Obs ([4]; Diflufenican 50 g/ha): 25
VIOTR Obs ([5]; Diflufenican 25 g/ha): 10
VIOTR Obs ([5]; Diflufenican 50 g/ha): 15
SETFA Obs ([6]; Diflufenican 25 g/ha): 8
SETFA Obs ([6]; Diflufenican 50 g/ha): 5
CHEAL Obs ([7]; Diflufenican 25 g/ha): 25
CHEAL Obs ([7]; Diflufenican 50 g/ha): 25
STEME Obs ([8]; Diflufenican 25 g/ha): 10
STEME Obs ([8]; Diflufenican 50 g/ha): 15
ABUTH Obs ([9]; Diflufenican 25 g/ha): 15
ABUTH Obs ([9]; Diflufenican 50 g/ha): 15
IPOHE Obs ([10]; Diflufenican 25 g/ha): 10
IPOHE Obs ([10]; Diflufenican 50 g/ha): 13
EPHHL Obs ([11]; Diflufenican 25 g/ha): 43
EPHHL Obs ([11]; Diflufenican 50 g/ha): 50

CNC1=C(c2cccc(C(F)(F)F)c2)C(=O)C(c2ccccc2)O1 (racemic) [Flurtamone, (±)-5-(methylamino)-2-phenyl-4-[3-(trifluoromethyl)phenyl]-3(2H)-furanone]
AMARE Obs ([1]; Flurtamone 62.5 g/ha): 40
AMARE Obs ([1]; Flurtamone 125 g/ha): 65
TRZAS Obs ([2]; Flurtamone 62.5 g/ha): 0
TRZAS Obs ([2]; Flurtamone 125 g/ha): 0
CYPES Obs ([3]; Flurtamone 62.5 g/ha): 5
CYPES Obs ([3]; Flurtamone 125 g/ha): 8
CIRAR Obs ([4]; Flurtamone 62.5 g/ha): 88
CIRAR Obs ([4]; Flurtamone 125 g/ha): 95
VIOTR Obs ([5]; Flurtamone 62.5 g/ha): 25
VIOTR Obs ([5]; Flurtamone 125 g/ha): 30
SETFA Obs ([6]; Flurtamone 62.5 g/ha): 0
SETFA Obs ([6]; Flurtamone 125 g/ha): 10
CHEAL Obs ([7]; Flurtamone 62.5 g/ha): 25
CHEAL Obs ([7]; Flurtamone 125 g/ha): 40
STEME Obs ([8]; Flurtamone 62.5 g/ha): 20
STEME Obs ([8]; Flurtamone 125 g/ha): 30
ABUTH Obs ([9]; Flurtamone 62.5 g/ha): 40
ABUTH Obs ([9]; Flurtamone 125 g/ha): 63
IPOHE Obs ([10]; Flurtamone 62.5 g/ha): 25
IPOHE Obs ([10]; Flurtamone 125 g/ha): 33
EPHHL Obs ([11]; Flurtamone 62.5 g/ha): 25
EPHHL Obs ([11]; Flurtamone 125 g/ha): 40
